Values after ≈ are worked out from the molar mass of the structure shown. Like-named read-outs stand apart in the source and are kept apart here.
Experiments:
Borreliella spp. = experiment: MIC by broth microdilution against Borreliella isolates; format: cell-based; conditions: range over 6 isolates (5 B. burgdorferi, 1 B. garinii)
Procedure: Minimal inhibitory concentrations (MIC) were determined against five (n=5) Borreliella burgdorferi isolates (ATCC 51990, 55131, 35211, 35210, 53899) and one (n=1) Borreliella garinii isolate (ATCC 51991) by broth microdilution technique (Dever, L. L., Jorgensen, J. H., Barbour, A. G. In vitro antimicrobial susceptibility testing of Boreliella burgdorferi: a microdilution MIC method and time-kill studies. J Clin Microbiol. 30(10), 2692-2697. (1992) doi: 10.1128/jcm.30.10.2692-2697.1992; Feng, J., Wang, T., Shi, W., et al. Identification of novel activity against Boreliella burgdorferi persisters using an FDA approved drug library. Emerg Microb Infect 3, e49 (2014) doi: 10.1038/emi.2014.53). The general procedures for broth microdilution were done according to the CLSI guidelines M7 and M100-S31 (CLSI. (2018) Methods for dilution antimicrobial susceptibility tests for bacteria that grow aerobically; Eleventh edition. M07.; CLSI. (2021) Performance Standards for Antimicrobial Susceptibility Testing; Thirty-first Edition. M100-S31).
Briefly, Borreliella spp. were grown at 36° C. under microaerophilic conditions in BSK II medium until the logarithmic or stationary growth phase was reached. The growth phase was determined by semiquantitative measurement of active and dormant cells by fluorescence microscopy of cells stained with the fluorescent dyes SYBR Green I and propidium iodide. An inoculum of 10^5−10^6 spirochetes/mL was used to inoculate broth microdilution plates containing serially 2-fold diluted test compounds.

T. pallidum SS14 strain = experiment: In vitro susceptibility in co-culture with rabbit Sf1Ep cells, qPCR of tp0574 gene; format: cell-based, Treponema pallidum; conditions: SS14 strain; penicillin G 60 ng/mL
Procedure: (§1) The in vitro susceptibility determination essentially followed the protocol described by Edmondson et al. (Edmondson, D. G., Hu, B., Norris, S. J. Long-Term In Vitro Culture of the Syphilis Spirochete Treponema pallidum subsp. pallidum. mBio 9(3) e01153-18. (2018). doi: 10.1128/mBio.01153-18).
(§2) Briefly, 3×10^3 rabbit Sf1Ep cells seeded in 96-well microtiter plates in 150 μl of culture media, were inoculated with the T. pallidum strains Chicago and SS14 at an inoculum of 3×10^3 (counted using dark field microscopy) in TpCM-2 medium that was equilibrated overnight at 34° C. in a microaerophilic environment consisting of 1.5% O2, 3.5% CO2 and 95% N2 supplied as a tri-gas mix. Lefamulin and penicillin G were added from 100-fold concentrated stocks in water to achieve the final test concentrations of 5, 2.5, 0.5, 0.1, 0.02. 0.01. 0.005, and 0.0025 μg/ml for Lefamulin and 60 ng/ml for penicillin G. Then the culture plates were incubated at 34° C. in a tri-gas incubator. Cells were then lysed and the DNA extracted using a Quick DNA-96 kit followed by the quantification of the treponemes by quantitative real-time PCR in triplicate targeting the tp0574 gene (Giacani L, Molini B, Godornes C, Barrett L, Van Voorhis WC, Centurion-Lara A, et al. Quantitative analysis of tpr gene expression in Treponema pallidum isolates: differences among isolates and correlation with T-cell responsiveness in experimental syphilis. Infect Immun. 75(1), 104-12 (2007). doi: 10.1128/IAI.01124-06).

[1] = system: T. pallidum Chicago strain; experiment: as above; format: cell-based, Treponema pallidum; conditions: Chicago strain; penicillin G 60 ng/mL
Procedure: as §1, §2

[2] = 192 h, stationary growth phase cultures, read after 8 days, read-out: MIC (μg/mL) for Stationary Growth Phase Culture (n = 6)
[3] = logarithmic growth phase cultures, read after 5 or 6 days, read-out: MIC (μg/mL) for Logarithmic Growth Phase Culture (n = 6)

| SMILES | MIC (Borreliella spp.; [2]) [µg/mL] | MIC (Borreliella spp.; [3]) [µg/mL] | copy number of tp0574 gene (T. pallidum SS14 strain) [copies/μL] | copy number of tp0574 gene [1] [copies/μL] |
| --- | --- | --- | --- | --- |
| C[C@H]1c2cccc(O)c2C(=O)C2=C(O)[C@]3(O)C(=O)C(C(N)=O)=C(O)[C@@H](N(C)C)[C@@H]3[C@@H](O)[C@@H]21 [Doxycycline] | 0.03 to 0.5 (≈ 0.0675 to 1.13 µM) | 0.03 to 0.5 (≈ 0.0675 to 1.13 µM) |  |  |
| C[C@H]1COc2c(N3CCN(C)CC3)c(F)cc3c(=O)c(C(=O)O)cn1c23 [Levofloxacin] | 2 to 8 (≈ 5.53 to 22.1 µM) | 2 to 4 (≈ 5.53 to 11.1 µM) |  |  |
| C=C[C@]1(C)C[C@@H](OC(=O)CSCCN(CC)CC)[C@]2(C)[C@H](C)CC[C@]3(CCC(=O)[C@H]32)[C@@H](C)[C@@H]1O [Tiamulin] | 0.03 to 0.25 (≈ 0.0608 to 0.506 µM) | 0.03 to 0.5 (≈ 0.0608 to 1.01 µM) |  |  |
| C=C[C@]1(C)C[C@@H](OC(=O)CO)[C@]2(C)[C@H](C)CC[C@]3(CCC(=O)[C@H]32)[C@@H](C)[C@@H]1O [Pleuromutilin] | 0.12 to 2 (≈ 0.317 to 5.28 µM) | 0.12 to 1 (≈ 0.317 to 2.64 µM) |  |  |
| CC1(C)S[C@@H]2[C@H](NC(=O)Cc3ccccc3)C(=O)N2[C@H]1C(=O)O [penicillin G] |  |  | 91 | 247 |
| CC[C@H]1OC(=O)[C@H](C)[C@@H](O[C@H]2C[C@@](C)(OC)[C@@H](O)[C@H](C)O2)[C@H](C)[C@@H](O[C@@H]2O[C@H](C)C[C@H](N(C)C)[C@H]2O)[C@](C)(O)C[C@@H](C)CN(C)[C@H](C)[C@@H](O)[C@]1(C)O [Azithromycin] | 0.001 to 0.004 (≈ 0.00134 to 0.00534 µM) | 0.001 to 0.004 (≈ 0.00134 to 0.00534 µM) |  |  |

Reference: patent US20250134844A1, “THERAPEUTIC USE OF PLEUROMUTILINS” (Nabriva Therapeutics GmbH, priority 2022, published 2025)
